From article PMC1950228, “Organosilicon-Containing Thiazole Derivatives as Potential Lipoxygenase Inhibitors and Anti-Inflammatory Agents” (Bioinorganic Chemistry and Applications, 2007)
≈ marks a conversion by molar mass, not a printed value. Where “and” joins values, the source holds several entries; their conditions need not be identical. Equal entries are not always repeated. Entries after “also recorded” stand apart in the source; their conditions may differ. Where two headings read alike, the source gives them in different places. Marks after values point to notes of the source that are not given here.

Key:
[1] = test system: carrageenin mice paw edema (CPE); experiment: Carrageenin-induced mice paw edema inhibition; format: in vivo, AKR or A mice
Protocol: AKR or A mice (20–30 g, groups of ten) of both sexes were used. Females pregnant were excluded. A single dose of 0.2 mmol/kg body weight of compounds 12, 16, 20, 21 and 0.01 mmol/kg of compound 22 or 0.013 mmol/kg of compound 14 suspended in water with few drops of Tween 80 was administered intraperitoneally simultaneously to the intradermally injection of 0.05 mL carrageenin in the right hind paw. Indomethacin was used as a standard diluted agent.
Organosilicon-containing compounds 12, 14, 16, 20–22 were examined in vivo for their anti-inflammatory activity using the carrageenin mice paw edema (CPE) as a model of inflammation. The in vivo anti-inflammatory effects of the tested thiazole derivatives were assessed by using the functional model of carrageenin-induced […] paw edema and are presented in Table 1 as percentage of weight increase at the right hind paw in comparison to the uninjected left hind paw.

[2] = target: T1, soybean lipoxygenase (LOX) (Glycine max, UniProt P08170); experiment: Soybean lipoxygenase inhibition (UV absorbance at 234 nm); format: biochemical; conditions: for % inhibition LOX: at 0.1 mmol
T1 sequence (P08170 1-839): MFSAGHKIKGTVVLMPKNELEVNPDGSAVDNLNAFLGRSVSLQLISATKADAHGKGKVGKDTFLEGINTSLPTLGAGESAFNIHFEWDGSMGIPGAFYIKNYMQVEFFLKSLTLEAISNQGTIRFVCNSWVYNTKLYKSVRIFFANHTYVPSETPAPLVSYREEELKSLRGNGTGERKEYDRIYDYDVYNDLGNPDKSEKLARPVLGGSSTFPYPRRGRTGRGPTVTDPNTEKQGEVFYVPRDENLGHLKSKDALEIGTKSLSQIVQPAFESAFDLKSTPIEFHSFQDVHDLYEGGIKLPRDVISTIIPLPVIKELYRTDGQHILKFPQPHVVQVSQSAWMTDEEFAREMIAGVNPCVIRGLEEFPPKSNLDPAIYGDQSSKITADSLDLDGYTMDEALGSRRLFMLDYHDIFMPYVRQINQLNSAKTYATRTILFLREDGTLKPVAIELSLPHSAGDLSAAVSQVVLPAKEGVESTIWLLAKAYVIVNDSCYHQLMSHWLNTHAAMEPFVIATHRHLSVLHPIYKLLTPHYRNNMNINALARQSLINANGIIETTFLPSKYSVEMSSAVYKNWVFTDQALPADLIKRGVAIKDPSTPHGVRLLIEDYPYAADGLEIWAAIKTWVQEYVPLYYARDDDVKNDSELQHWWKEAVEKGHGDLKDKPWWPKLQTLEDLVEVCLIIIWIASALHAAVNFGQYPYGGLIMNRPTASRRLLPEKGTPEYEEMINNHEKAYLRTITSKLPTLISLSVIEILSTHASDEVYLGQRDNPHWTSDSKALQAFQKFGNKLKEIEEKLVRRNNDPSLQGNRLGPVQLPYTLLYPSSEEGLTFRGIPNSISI
Protocol: The tested compounds dissolved in DMSO or ethanol (concentrations ranged from 0.1 to 1 mM) were incubated at room temperature with sodium linoleate (0.1 mmol) and 0.2 mL of enzyme solution (250 U/mL in saline).
While one may not extrapolate the quantitative results of this assay to the inhibition of mammalian 5-LOX, it has been shown that inhibition of plant lipoxygenase activity by NSAIDs is qualitatively similar to their inhibition of the rat mast cell lipoxygenase and may be used as a simple qualitative screen for such activity. […] The IC50 values for compounds 14, 16, 17, 19, and 22 were determined.

[3] = test system: HT-1080 (human fibrosarcoma); conditions: cited from earlier work
[4] = test system: MG-22A (mouse hepatoma); experiment: In vitro cytotoxicity, MG-22A; format: cell-based; conditions: for CC50: Mus musculus, MG-22A; for LC50 MG-22A: mouse hepatoma, coloration not stated
Protocol: (§1) Monolayer tumour cell lines MG-22A (mouse hepatoma), HT-1080 (human fibrosarcoma), and normal mouse fibroblasts (NIH 3T3) were cultivated for 72 hours in DMEM standard medium (Sigma) without an indicator and antibiotics. After the ampoule had thawed, cells from one to four passages were used in three concentrations of test compound: 1, 10 and 100 μg mL^−1. The control cells and cells with tested compounds in the range of 2–5* 10^4 cell mL^−1 concentration (depending on line nature) were placed on separate 96 wells plates. Solutions containing test compounds were diluted and added in wells to give the final concentrations. Control cells were treated in the same manner only in the absence of test compounds. Plates were cultivated for 72 hours. The number of survived cells was determined using crystal violet (CV), 3-(4,5-dimethylthiazol-2-yl)-2,5-diphenyltetrazolinium bromide (MTT), or neutral red (NR) coloration which was assayed by multiscan spectrophotometer. The quantity of alive cells on control plate was taken in calculations for 100% [22, 23]. The LC50 was calculated using Graph Pad Prism 3.0 program, r < .05. Concentration of NO was determined according to [23].

[5] = In vitro cytotoxicity, NIH 3T3 (neutral red) and LD50; format: cell-based; conditions: for CC50 at 72 h: 50% cell killing, neutral red coloration, normal mouse fibroblasts, read-out: LC50 NIH 3T3 NR; for LD50: mouse, NIH 3T3, method not described
Protocol: The control cells and cells with tested compounds in the range of 2–5* 10^4 cell mL^−1 concentration (depending on line nature) were placed on separate 96 wells plates. […] Control cells were treated in the same manner only in the absence of test compounds. Plates were cultivated for 72 hours. The number of survived cells was determined using crystal violet (CV), 3-(4,5-dimethylthiazol-2-yl)-2,5-diphenyltetrazolinium bromide (MTT), or neutral red (NR) coloration which was assayed by multiscan spectrophotometer. The quantity of alive cells on control plate was taken in calculations for 100% [22, 23]. The LC50 was calculated using Graph Pad Prism 3.0 program, r < .05. Concentration of NO was determined according to [23].

[6] = test system: HT-1080 (human fibrosarcoma); experiment: In vitro cytotoxicity, HT-1080; format: cell-based; conditions: for stimulation of HT-1080 cell growing: CV, at all studied concentrations; for CC50: Homo sapiens; for LC50 HT-1080: human fibrosarcoma, coloration not stated
Protocol: as §1

[7] = test system: HT-1080 (human fibrosarcoma); experiment: Intracellular NO generation, HT-1080; format: cell-based; conditions: CV coloration
Protocol: as §1

[8] = test system: MG-22A (mouse hepatoma); experiment: Intracellular NO generation, MG-22A; format: cell-based; conditions: CV coloration
Protocol: as §1

[9] = dose 0.2 mmol/kgbw, intraperitoneally
[10] = soybean lipoxygenase, sodium linoleate 0.1 mmol, read-out: IC50 LOX
[11] = 50% cell killing, MTT coloration, 72 hours, read-out: LC50 MG-22A MTT
[12] = 50% cell killing, crystal violet coloration, 72 hours, read-out: LC50 MG-22A CV
[13] = NIH 3T3 normal mouse fibroblasts
[14] = HT-1080, 50% cell killing, MTT coloration, 72 hours, read-out: LC50 HT-1080 MTT
[15] = HT-1080, 50% cell killing, crystal violet coloration, 72 hours, read-out: LC50 HT-1080 CV
[16] = 72 h, read-out: LC50 MG-22A MTT
[17] = HT-1080, 72 h, read-out: LC50 HT-1080 MTT

SMILES: C[Si](C)(C)OCc1csc(-c2ccccc2)n1 [Compound 16, 2-phenyl-4-trimethylsilox-ymethyl-thiazole]
- % carrageenin mice paw edema inhibition (CPE%) [1, 9]: 47.6 ^* %
- IC50 [2, 10]: 470 µM

SMILES: O=C(CCN1CCC(O)CC1)Nc1nccs1 [Compound 10, 3-(4-hydroxypiperidin-1-yl)-N-(thiazol-2-yl)-propionamide]
- LC50 human fibrosarcoma ([3]; HT-1080, coloration not stated, previously published data ref 17): 48 µg/mL (≈ 188 µM)

SMILES: C[Si](C)(C)OC1CCN(CCC(=O)Nc2nccs2)CC1 [Compound 21, 3-(4-trimethylsiloxypiperidin-1-yl)-N-(thiazol-2-yl)-propionamide]
- % carrageenin mice paw edema inhibition (CPE%) [1, 9]: 57.2% and 57.2 ^* %
- LC50 human fibrosarcoma [3]: 44 µg/mL (≈ 134 µM)

SMILES: O=C(CN1CCC(O)CC1)Nc1nccs1 [Compound 6, 2-(4-hydroxypiperidin-1-yl)-N-(thiazol-2-yl)-acetnamide]
- decrease of MG-22A cell growing ([4]; MTT coloration): up to 40%
- CC50 [4, 11]: > 100 µg/mL
- CC50 [4, 12]: > 100 µg/mL
- LC50 MG-22A [4]: do not exhibit cytotoxic properties
- CC50 at 72 h [5, 13]: > 100 µg/mL
- LD50 [5]: > 2000 mg/kg
- stimulation of HT-1080 cell growing [6]: up to 55%
- CC50 [6, 14]: > 100 µg/mL
- CC50 [6, 15]: > 100 µg/mL
- LC50 HT-1080 [6]: do not exhibit cytotoxic properties
- NO HT-1080 CV [7]: 4
- NO MG-22A CV [8]: 6

SMILES: C[Si](C)(C)OC1CCN(CC(=O)Nc2nccs2)CC1 [Compound 17, 2-(4-trimethylsiloxypiperidin-1-yl)-N-(thiazol-2-yl)-acetamide]
- decrease of MG-22A cell growing ([4]; MTT coloration): up to 40%
- CC50 [4, 16]: > 100 µg/mL
- LC50 MG-22A [4]: do not exhibit cytotoxic properties; also recorded: inactive
- CC50 at 72 h [5]: > 100 µg/mL
- LD50 [5]: 2130 mg/kg
- stimulation of HT-1080 cell growing [6]: up to 55%
- CC50 [6, 17]: > 100 µg/mL
- LC50 HT-1080 [6]: do not exhibit cytotoxic properties; also recorded: inactive
- NO HT-1080 CV [7]: 11
- NO MG-22A CV [8]: 23
- IC50 [2]: 350 µM

SMILES: COc1ccc2c(c1)c(CC(=O)O)c(C)n2C(=O)c1ccc(Cl)cc1 [Indomethacin, reference compound]
- % carrageenin mice paw edema inhibition (CPE%) ([1]; standard, dose 0.1 mmol/kgbw): 57.4%

SMILES: COc1ccc(-c2csc(NC(=O)CN3CCC(O[Si](C)(C)C)CC3)n2)cc1 [Compound 19, 2-(4-trimethylsilyloxypiperidin-1-yl)-N-[4-(p-methoxyphenyl)-thiazol-2-yl]-acetamide]
- CC50 ([4]; 72 h, read-out: LC50 MG-22A CV): 21 µg/mL
- CC50 [4, 16]: 13 µg/mL
- CC50 ([4]; read-out: LC50 MG-22A): 30 µM
- CC50 at 72 h [5]: 72 µg/mL (≈ 172 µM)
- LD50 [5]: 839 mg/kg
- CC50 [6, 17]: 100 µg/mL (≈ 238 µM)
- CC50 ([6]; HT-1080, read-out: LC50 HT-1080): > 100 µg/mL
- NO HT-1080 CV [7]: 27
- NO MG-22A CV [8]: 122
- IC50 [2]: 10 µM

SMILES: C[Si](C)(C)OCc1csc(N)n1 [Compound 14, 2-amino-4-trimethylsiloxymethyl-thiazole]
- % carrageenin mice paw edema inhibition (CPE%) ([1]; dose 0.013 mmol/kg, intraperitoneally): 35.5 ^* %
- IC50 [2, 10]: 100 µM

SMILES: COc1ccc(-c2csc(NC(=O)CN3CCC(O)CC3)n2)cc1 [Compound 8, 2-(4-hy-droxypiperidin-1-yl)-N-[4-(p-methoxyphenyl)-thiazol-2-yl]-acetamide]
- CC50 [4, 11]: 16 µg/mL
- CC50 [4, 12]: 17 µg/mL
- CC50 at 72 h [5, 13]: > 100 µg/mL
- LD50 [5]: 1110 mg/kg
- CC50 [6, 14]: 100 µg/mL (≈ 288 µM)
- CC50 [6, 15]: > 100 µg/mL
- NO HT-1080 CV [7]: 8
- NO MG-22A CV [8]: 75

SMILES: CCCCCCCCCCCCCCc1sc(NC(=O)CN2CCC(O[Si](C)(C)C)CC2)nc1-c1ccccc1 [Compound 20, 2-(4-trimethylsiloxypiperidin-1-yl)-N-(4-phenyl-5-tetradecylthi-azol-2-yl)-acetamide]
- % carrageenin mice paw edema inhibition (CPE%) [1, 9]: 38.3 ^* %
- lower lipoxygenase inhibiting properties in comparison with compound 18 ([2]; difference of % inhibition at 0.1 mmol): 26%
- % inhibition LOX ([2]; soybean lipoxygenase): 40.8%

SMILES: C[Si](C)(C)CCC[n+]1ccsc1N.[I-] [Compound 22, 2-amino-3-(γ-trimethylsilylpropyl)thiazolium iodide]
- % carrageenin mice paw edema inhibition (CPE%) ([1]; dose 0.01 mmol/kg, intraperitoneally): 55.0% and 55.0 ^* %
- IC50 [2, 10]: 460 µM

SMILES: Cc1ncsc1CCO[Si](C)(C)C [Compound 12, 4-methyl-5-(β-trimethylsiloxyethyl)-thiazole]
- % carrageenin mice paw edema inhibition (CPE%) [1, 9]: 24 ^** %
- % inhibition LOX ([2]; soybean lipoxygenase): 9.1%

SMILES: C[Si](C)(C)OC1CCN(CC(=O)Nc2nc(-c3ccccc3)cs2)CC1 [Compound 18, 2-(4-trimethylsiloxypiperidin-1-yl)-N-(4-phenylthiazol-2-yl)-acetamide]
- % inhibition LOX ([2]; soybean lipoxygenase): 66.7%
